Measurements reported in patent publication US9326506B2, “Preparation method, agricultural composition and applications of natural brassinolide analogs” (CHENGDU NEWSUN CROPSCIENCE CO., LTD, priority 2012, dated 2016).

System: rice
Experiment: Low temperature assay on rice seedlings
Type: in vivo
Method: According to a low temperature assay, we measured parameters including plant height, number of leaf, area of leaf, number of tiller, weight of root at low temperature to completely determine effects of the natural brassinolide analogues on the resistance to low temperature of a plant.
The natural brassinolide analogues, BR1, BR2, BR3, BR4, BR5 and BR6, used herein, were those prepared by the method of Example 1. Respectively the analogues were dissolved into 95% (V/V) ethanol solution, and then diluted with pure water to 1 mg/L, 0.1 mg/L, 0.01 mg/L, 0.001 mg/L and 0.0001 mg/L. In addition, pure water was used as a control.
After rice seeds were disinfected by using 5% sodium hypochlorite solution treatment, they were rinsed with distilled water until their pH>7, placed into a petri dish in a dark incubator, and cultured by using water at 30° C.±2° C. for 9 days. Then respectively the nine-day-old etiolated seedlings of rice were immersed in the above solutions containing different concentrations of the natural brassinolide analogues or pure water, and cultured at the temperature of 1° C., 2° C., 3° C., 4° C. and 5° C. for 24 hr. The parameters including plant height, area of leaf and weight of root after 3, 6, 9 and 12 days and number of leaf and number of tiller after 12 days were measured.

Compound: CC[C@@H](C(C)C)[C@@H](O)[C@H](O)[C@@H](C)[C@H]1CCC2C3COC(=O)C4C[C@H](O)[C@H](O)C[C@]4(C)C3CC[C@@]21C (stereo partly shown) [BR2]
- Height (0.01 mg/l, 3 °C, 9 days): 7.7 cm
- Weight of root (0.01 mg/l, 3 °C, 9 days): 2.9 g
- Area of leaf (0.01 mg/l, 3 °C, 12 days): 13.2 cm^2
- Height (0.01 mg/l, 3 °C, 12 days): 7.9 cm
- Number of leaf (0.01 mg/l, 3 °C, 12 days): 3
- Number of tiller (0.01 mg/l, 3 °C, 12 days): 2
- Weight of root (0.01 mg/l, 3 °C, 12 days): 2.9 g
- Area of leaf (0.01 mg/l, 4 °C, 3 days): 10.8 cm^2
- Height (0.01 mg/l, 4 °C, 3 days): 7.1 cm
- Weight of root (0.01 mg/l, 4 °C, 3 days): 2.5 g
- Area of leaf (0.01 mg/l, 4 °C, 6 days): 12.4 cm^2
- Height (0.01 mg/l, 4 °C, 6 days): 7.5 cm
- Weight of root (0.01 mg/l, 4 °C, 6 days): 2.6 g
- Area of leaf (0.01 mg/l, 4 °C, 9 days): 13.2 cm^2
- Height (0.01 mg/l, 4 °C, 9 days): 7.7 cm
- Weight of root (0.01 mg/l, 4 °C, 9 days): 2.9 g
- Area of leaf (0.01 mg/l, 4 °C, 12 days): 13.5 cm^2
- Height (0.01 mg/l, 4 °C, 12 days): 7.8 cm
- Number of leaf (0.01 mg/l, 4 °C, 12 days): 3
- Number of tiller (0.01 mg/l, 4 °C, 12 days): 2
- Weight of root (0.01 mg/l, 4 °C, 12 days): 3.0 g
- Area of leaf (0.01 mg/l, 5 °C, 3 days): 10.3 cm^2
- Height (0.01 mg/l, 5 °C, 3 days): 7.4 cm
- Weight of root (0.01 mg/l, 5 °C, 3 days): 2.8 g
- Area of leaf (0.01 mg/l, 5 °C, 6 days): 13.1 cm^2
- Height (0.01 mg/l, 5 °C, 6 days): 7.6 cm
- Weight of root (0.01 mg/l, 5 °C, 6 days): 3.0 g
- Area of leaf (0.01 mg/l, 5 °C, 9 days): 16.4 cm^2
- Height (0.01 mg/l, 5 °C, 9 days): 8 cm
- Weight of root (0.01 mg/l, 5 °C, 9 days): 3.4 g
- Area of leaf (0.01 mg/l, 5 °C, 12 days): 17 cm^2
- Height (0.01 mg/l, 5 °C, 12 days): 8.2 cm
- Number of leaf (0.01 mg/l, 5 °C, 12 days): 4
- Number of tiller (0.01 mg/l, 5 °C, 12 days): 3
- Weight of root (0.01 mg/l, 5 °C, 12 days): 3.9 g
- Area of leaf (0.1 mg/l, 1 °C, 3 days): 10.1 cm^2
- Height (0.1 mg/l, 1 °C, 3 days): 7.0 cm
- Weight of root (0.1 mg/l, 1 °C, 3 days): 2.8 g
- Area of leaf (0.1 mg/l, 1 °C, 6 days): 11 cm^2
- Height (0.1 mg/l, 1 °C, 6 days): 7.2 cm
- Weight of root (0.1 mg/l, 1 °C, 6 days): 3.0 g
- Area of leaf (0.1 mg/l, 1 °C, 9 days): 12.1 cm^2
- Height (0.1 mg/l, 1 °C, 9 days): 7.3 cm
- Weight of root (0.1 mg/l, 1 °C, 9 days): 3.4 g
- Area of leaf (0.1 mg/l, 1 °C, 12 days): 13.4 cm^2
- Height (0.1 mg/l, 1 °C, 12 days): 7.4 cm
- Number of leaf (0.1 mg/l, 1 °C, 12 days): 3
- Number of tiller (0.1 mg/l, 1 °C, 12 days): 3
- Weight of root (0.1 mg/l, 1 °C, 12 days): 3.6 g
- Area of leaf (0.1 mg/l, 2 °C, 3 days): 10.4 cm^2
- Height (0.1 mg/l, 2 °C, 3 days): 7.1 cm
- Weight of root (0.1 mg/l, 2 °C, 3 days): 2.8 g
- Area of leaf (0.1 mg/l, 2 °C, 6 days): 11.2 cm^2
- Height (0.1 mg/l, 2 °C, 6 days): 7.3 cm
- Weight of root (0.1 mg/l, 2 °C, 6 days): 3.0 g
- Area of leaf (0.1 mg/l, 2 °C, 9 days): 12.6 cm^2
- Height (0.1 mg/l, 2 °C, 9 days): 7.3 cm
- Weight of root (0.1 mg/l, 2 °C, 9 days): 3.1 g
- Area of leaf (0.1 mg/l, 2 °C, 12 days): 13.6 cm^2
- Height (0.1 mg/l, 2 °C, 12 days): 7.4 cm
- Number of leaf (0.1 mg/l, 2 °C, 12 days): 3
- Number of tiller (0.1 mg/l, 2 °C, 12 days): 3
- Weight of root (0.1 mg/l, 2 °C, 12 days): 3.2 g
- Area of leaf (0.1 mg/l, 3 °C, 3 days): 10.5 cm^2
- Height (0.1 mg/l, 3 °C, 3 days): 7.4 cm
- Weight of root (0.1 mg/l, 3 °C, 3 days): 2.5 g
- Area of leaf (0.1 mg/l, 3 °C, 6 days): 12 cm^2
- Height (0.1 mg/l, 3 °C, 6 days): 7.4 cm
- Weight of root (0.1 mg/l, 3 °C, 6 days): 2.7 g
- Area of leaf (0.1 mg/l, 3 °C, 9 days): 12.6 cm^2
- Height (0.1 mg/l, 3 °C, 9 days): 7.8 cm
- Weight of root (0.1 mg/l, 3 °C, 9 days): 2.9 g
- Area of leaf (0.1 mg/l, 3 °C, 12 days): 13.4 cm^2
- Height (0.1 mg/l, 3 °C, 12 days): 7.9 cm
- Number of leaf (0.1 mg/l, 3 °C, 12 days): 3
- Number of tiller (0.1 mg/l, 3 °C, 12 days): 2
- Weight of root (0.1 mg/l, 3 °C, 12 days): 2.9 g
- Area of leaf (0.1 mg/l, 4 °C, 3 days): 10.8 cm^2
- Height (0.1 mg/l, 4 °C, 3 days): 7.5 cm
- Weight of root (0.1 mg/l, 4 °C, 3 days): 2.5 g
- Area of leaf (0.1 mg/l, 4 °C, 6 days): 12.1 cm^2
- Height (0.1 mg/l, 4 °C, 6 days): 7.5 cm
- Weight of root (0.1 mg/l, 4 °C, 6 days): 2.7 g
- Area of leaf (0.1 mg/l, 4 °C, 9 days): 13.4 cm^2
- Height (0.1 mg/l, 4 °C, 9 days): 8 cm
- Weight of root (0.1 mg/l, 4 °C, 9 days): 2.9 g
- Area of leaf (0.1 mg/l, 4 °C, 12 days): 13.8 cm^2
- Height (0.1 mg/l, 4 °C, 12 days): 8.1 cm
- Number of leaf (0.1 mg/l, 4 °C, 12 days): 3
- Number of tiller (0.1 mg/l, 4 °C, 12 days): 2
- Weight of root (0.1 mg/l, 4 °C, 12 days): 3.1 g
- Area of leaf (0.1 mg/l, 5 °C, 3 days): 11 cm^2
- Height (0.1 mg/l, 5 °C, 3 days): 7.5 cm
- Weight of root (0.1 mg/l, 5 °C, 3 days): 2.9 g
- Area of leaf (0.1 mg/l, 5 °C, 6 days): 12.9 cm^2
- Height (0.1 mg/l, 5 °C, 6 days): 7.6 cm
- Weight of root (0.1 mg/l, 5 °C, 6 days): 3.2 g
- Area of leaf (0.1 mg/l, 5 °C, 9 days): 16.8 cm^2
- Height (0.1 mg/l, 5 °C, 9 days): 8.1 cm
- Weight of root (0.1 mg/l, 5 °C, 9 days): 3.5 g
- Area of leaf (0.1 mg/l, 5 °C, 12 days): 19 cm^2
- Height (0.1 mg/l, 5 °C, 12 days): 8.3 cm
- Number of leaf (0.1 mg/l, 5 °C, 12 days): 3
- Number of tiller (0.1 mg/l, 5 °C, 12 days): 2
- Weight of root (0.1 mg/l, 5 °C, 12 days): 4.1 g
- Area of leaf (1 mg/l, 1 °C, 3 days): 10 cm^2
- Height (1 mg/l, 1 °C, 3 days): 7.2 cm
- Weight of root (1 mg/l, 1 °C, 3 days): 2.6 g
- Area of leaf (1 mg/l, 1 °C, 6 days): 11.2 cm^2
- Height (1 mg/l, 1 °C, 6 days): 7.3 cm
- Weight of root (1 mg/l, 1 °C, 6 days): 3.1 g
- Area of leaf (1 mg/l, 1 °C, 9 days): 12.4 cm^2
- Height (1 mg/l, 1 °C, 9 days): 7.3 cm
- Weight of root (1 mg/l, 1 °C, 9 days): 3.2 g
- Area of leaf (1 mg/l, 1 °C, 12 days): 13 cm^2
- Height (1 mg/l, 1 °C, 12 days): 7.9 cm
- Number of leaf (1 mg/l, 1 °C, 12 days): 3
- Number of tiller (1 mg/l, 1 °C, 12 days): 3
- Weight of root (1 mg/l, 1 °C, 12 days): 3.7 g
- Area of leaf (1 mg/l, 2 °C, 3 days): 10.2 cm^2
- Height (1 mg/l, 2 °C, 3 days): 7.2 cm
- Weight of root (1 mg/l, 2 °C, 3 days): 2.6 g
- Area of leaf (1 mg/l, 2 °C, 6 days): 11.7 cm^2
- Height (1 mg/l, 2 °C, 6 days): 7.2 cm
- Weight of root (1 mg/l, 2 °C, 6 days): 3.0 g
- Area of leaf (1 mg/l, 2 °C, 9 days): 12.6 cm^2
- Height (1 mg/l, 2 °C, 9 days): 7.3 cm
- Weight of root (1 mg/l, 2 °C, 9 days): 3.2 g
- Area of leaf (1 mg/l, 2 °C, 12 days): 13 cm^2
- Height (1 mg/l, 2 °C, 12 days): 8 cm
- Number of leaf (1 mg/l, 2 °C, 12 days): 3
- Number of tiller (1 mg/l, 2 °C, 12 days): 3
- Weight of root (1 mg/l, 2 °C, 12 days): 3.7 g
- Area of leaf (1 mg/l, 3 °C, 3 days): 10.4 cm^2
- Height (1 mg/l, 3 °C, 3 days): 7.4 cm
- Weight of root (1 mg/l, 3 °C, 3 days): 2.5 g
- Area of leaf (1 mg/l, 3 °C, 6 days): 12 cm^2
- Height (1 mg/l, 3 °C, 6 days): 7.5 cm
- Weight of root (1 mg/l, 3 °C, 6 days): 2.6 g
- Area of leaf (1 mg/l, 3 °C, 9 days): 12.1 cm^2
- Height (1 mg/l, 3 °C, 9 days): 7.9 cm
- Weight of root (1 mg/l, 3 °C, 9 days): 2.9 g
- Area of leaf (1 mg/l, 3 °C, 12 days): 13.2 cm^2
- Height (1 mg/l, 3 °C, 12 days): 8.1 cm
- Number of leaf (1 mg/l, 3 °C, 12 days): 3
- Number of tiller (1 mg/l, 3 °C, 12 days): 2
- Weight of root (1 mg/l, 3 °C, 12 days): 2.9 g
- Area of leaf (1 mg/l, 4 °C, 3 days): 10.9 cm^2
- Height (1 mg/l, 4 °C, 3 days): 7.4 cm
- Weight of root (1 mg/l, 4 °C, 3 days): 2.5 g
- Area of leaf (1 mg/l, 4 °C, 6 days): 12.6 cm^2
- Height (1 mg/l, 4 °C, 6 days): 7.5 cm
- Weight of root (1 mg/l, 4 °C, 6 days): 2.7 g
- Area of leaf (1 mg/l, 4 °C, 9 days): 13.2 cm^2
- Height (1 mg/l, 4 °C, 9 days): 8.0 cm
- Weight of root (1 mg/l, 4 °C, 9 days): 3.0 g
- Area of leaf (1 mg/l, 4 °C, 12 days): 14 cm^2
- Height (1 mg/l, 4 °C, 12 days): 8.2 cm
- Number of leaf (1 mg/l, 4 °C, 12 days): 3
- Number of tiller (1 mg/l, 4 °C, 12 days): 2
- Weight of root (1 mg/l, 4 °C, 12 days): 3.2 g
- Area of leaf (1 mg/l, 5 °C, 3 days): 11.1 cm^2
- Height (1 mg/l, 5 °C, 3 days): 7.4 cm
- Weight of root (1 mg/l, 5 °C, 3 days): 2.9 g
- Area of leaf (1 mg/l, 5 °C, 6 days): 13.1 cm^2
- Height (1 mg/l, 5 °C, 6 days): 7.7 cm
- Weight of root (1 mg/l, 5 °C, 6 days): 3.5 g
- Area of leaf (1 mg/l, 5 °C, 9 days): 18 cm^2
- Height (1 mg/l, 5 °C, 9 days): 8.2 cm
- Weight of root (1 mg/l, 5 °C, 9 days): 3.7 g
- Area of leaf (1 mg/l, 5 °C, 12 days): 20 cm^2
- Height (1 mg/l, 5 °C, 12 days): 8.4 cm
- Number of leaf (1 mg/l, 5 °C, 12 days): 3
- Number of tiller (1 mg/l, 5 °C, 12 days): 2
- Weight of root (1 mg/l, 5 °C, 12 days): 4.5 g
